Laboratory results: paper PMC7747594, “Protease-activated receptor-2 ligands reveal orthosteric and allosteric mechanisms of receptor inhibition” (Communications Biology, 2020)
“And” between values parts separate entries of the source, which are not always exact repeats. Equal values may be shown once.

How the values were obtained:
[1] = biological target: T1, hPAR2 (Homo sapiens, UniProt P55085); assay: β-arrestin-2 recruitment, agonist mode, U2OS-hPAR2 cells; assay type: cell-based; design: agonist response (Fig 2f), individual replicate values: unit not given here
T1 sequence (P55085 26-397): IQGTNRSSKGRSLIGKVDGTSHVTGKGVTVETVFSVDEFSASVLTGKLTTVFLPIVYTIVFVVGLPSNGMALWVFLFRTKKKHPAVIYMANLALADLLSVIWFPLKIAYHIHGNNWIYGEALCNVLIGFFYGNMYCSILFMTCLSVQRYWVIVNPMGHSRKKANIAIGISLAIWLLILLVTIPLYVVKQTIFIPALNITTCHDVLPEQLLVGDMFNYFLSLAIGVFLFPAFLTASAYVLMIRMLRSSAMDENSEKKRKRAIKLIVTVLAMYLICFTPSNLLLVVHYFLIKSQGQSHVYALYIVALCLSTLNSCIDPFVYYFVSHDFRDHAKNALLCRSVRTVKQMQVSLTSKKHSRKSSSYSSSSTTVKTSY

[2] = biological target: T2, PAR2 (F2RL1) (Homo sapiens, UniProt P55085); assay: β-arrestin recruitment, DiscoverX profiling service, PAR2; assay type: cell-based; settings: for Max Response: in % (unit assumed)
T2 sequence (P55085 26-397): T1 sequence (P55085 26-397)

[3] = biological target: T3, PAR4 (F2RL3) (Homo sapiens, UniProt Q96RI0); assay: β-arrestin recruitment, DiscoverX profiling service, PAR4; assay type: cell-based
T3 sequence (Q96RI0 18-385): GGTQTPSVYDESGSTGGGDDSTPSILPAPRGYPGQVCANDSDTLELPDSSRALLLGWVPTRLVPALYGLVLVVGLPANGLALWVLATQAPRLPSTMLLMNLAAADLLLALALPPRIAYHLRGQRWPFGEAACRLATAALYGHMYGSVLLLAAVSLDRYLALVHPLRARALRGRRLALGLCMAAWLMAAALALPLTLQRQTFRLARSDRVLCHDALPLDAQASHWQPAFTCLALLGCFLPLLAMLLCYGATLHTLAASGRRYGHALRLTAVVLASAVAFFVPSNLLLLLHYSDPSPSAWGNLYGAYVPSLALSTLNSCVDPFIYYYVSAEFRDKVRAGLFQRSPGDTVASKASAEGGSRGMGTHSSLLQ

[4] = tested on: parental 1321N1 cells; assay: Ca^2+ flux assay, agonist mode, parental 1321N1 cells; assay type: cell-based; design: Ca2+ response (Fig 2c), individual replicate values: unit not given here; settings: for Ca2+ response (Fig 2c), individual replicate values: control
Experimental: Cells were loaded with Fluo-8 NW calcium dye (AAT Bioquest) for 30 min at 37 °C before compounds in Hank’s balanced salt solution (HBSS, ThermoFisher Scientific) with 20 mM HEPES (ThermoFisher Scientific), 0.1% bovine serum albumin (BSA, Sigma) and 0.5% DMSO were added and simultaneously evaluated for changes in intracellular [Ca^2+] using FLIPR TETRA (Molecular Devices) to detect agonism. For each concentration, the difference between the maximum peak Ca^2+ response and baseline response is reported. […] Antagonism experiments were also carried out on 1321N1-PAR2[WT], 1321N1-PAR2[F154A], and 1321N1-PAR2[G157C] as described. Experiments with trypsin in 1321N1-hPAR2 cells were performed in the presence of 1 µM Vorapaxar (Chemtronica) to remove any interference of PAR1 activity. […] Antagonism experiments for CHO-hPAR2 and HT-29 cells were performed in 96-well plates at 30,000 cells/well. Cells were loaded with Fluo-3 AM calcium dye (Sigma-Aldrich) for 60 min at 37 °C in HBSS with 1% FBS, 0.2% pluronic acid, 20 mM HEPES and 2.5 mM probenecid prior to the addition of antagonist. The antagonist was pre-incubated for 60 min at 37 °C followed by the addition of bovine trypsin (30 nM) at EC80. Intracellular [Ca^2+] flux was measured using FLIPR TETRA (Molecular Devices) and the difference between the maximum peak Ca^2+ response and baseline response is reported.

[5] = biological target: T4, PAR2 stabilised receptor (StaR) (Homo sapiens, UniProt P55085); assay: Surface plasmon resonance (SPR) binding, single-cycle kinetics; settings: n of 2, earlier manuscript version quoted by reviewer
T4 sequence (P55085 55-377): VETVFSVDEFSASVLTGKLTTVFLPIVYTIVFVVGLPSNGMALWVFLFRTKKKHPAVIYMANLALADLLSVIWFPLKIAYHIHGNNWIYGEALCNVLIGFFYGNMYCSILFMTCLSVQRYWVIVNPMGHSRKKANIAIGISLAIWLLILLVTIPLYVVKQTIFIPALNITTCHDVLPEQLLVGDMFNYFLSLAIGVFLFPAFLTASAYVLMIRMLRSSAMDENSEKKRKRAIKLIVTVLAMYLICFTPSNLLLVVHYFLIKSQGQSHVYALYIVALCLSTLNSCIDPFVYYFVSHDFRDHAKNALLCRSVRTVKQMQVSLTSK

CNC(=O)[C@H]1CC[C@@H](NC(=O)[C@H](CC2CCCCC2)NC(=O)c2cn(Cc3ccccc3)nn2)c2ccccc21 [AZ2429]
EC50 ([1]; U2OS-hPAR2, mean ± s.e.m., read-out: β-arrestin pEC50 (converted)): 251 nM
agonist response (Fig 2f), individual replicate values ([1]; [compound],M -4.52288): 136.003 and 128.564 and 133.913 and 56.5764 and 110.418 and 80.4631 and 65.432 and 80.8727 and 70.3477 and 91.7141 and 102.077 and 89.1574
agonist response (Fig 2f), individual replicate values ([1]; [compound],M -5): 131.19 and 120.248 and 136.172 and 56.4288 and 102.534 and 68.8992 and 68.7979 and 70.6147 and 68.8215 and 77.979 and 96.7821 and 92.1516
agonist response (Fig 2f), individual replicate values ([1]; [compound],M -5.47712): 112.303 and 119.541 and 118.68 and 44.4899 and 108.952 and 63.9568 and 68.1752 and 70.9487 and 60.988 and 94.267 and 96.9331 and 92.4234
agonist response (Fig 2f), individual replicate values ([1]; [compound],M -5.95424): 118.57 and 119.322 and 126.112 and 66.9594 and 124.296 and 94.3698 and 67.5375 and 74.2944 and 72.0498 and 104.83 and 109.824 and 109.97
agonist response (Fig 2f), individual replicate values ([1]; [compound],M -6.43136): 125.477 and 105.411 and 104.73 and 109.603 and 104.761 and 111.037 and 54.7204 and 64.3421 and 52.5276 and 82.0218 and 82.1308 and 78.7213
agonist response (Fig 2f), individual replicate values ([1]; [compound],M -6.90849): 100.424 and 92.4091 and 99.838 and 93.2711 and 86.5209 and 104.138 and 29.1218 and 35.2385 and 27.4797 and 47.1154 and 56.0608 and 47.0166
agonist response (Fig 2f), individual replicate values ([1]; [compound],M -7.38561): 86.365 and 78.1735 and 66.0975 and 85.2162 and 75.5111 and 91.061 and 20.8827 and 22.73 and 14.0732 and 38.9752 and 29.9961 and 25.8403
agonist response (Fig 2f), individual replicate values ([1]; [compound],M -7.86273): 50.0191 and 38.4004 and 28.0445 and 63.4341 and 52.1546 and 58.7101 and 8.067 and 10.1642 and 0.7234 and 8.708 and 10.6741 and 5.686
agonist response (Fig 2f), individual replicate values ([1]; [compound],M -8.33985): 11.2254 and 10.5953 and 6.644 and 26.1895
Curve Bottom ([2]; Agonist format): -2
Curve Top ([2]; Agonist format): 103.3
Hill ([2]; Agonist format): 1.29
Max Response ([2]; Agonist format): 104.3
EC50 ([2]; Agonist format, read-out: RC50 (EC50)): 25 nM
Max Response ([2]; Antagonist format): 4.5
IC50 ([2]; Antagonist format, read-out: RC50 (IC50)): > 50 µM
Max Response ([3]; Arrestin, Agonist format, F2RL3): 3.8%
EC50 ([3]; Arrestin, Agonist format, F2RL3, read-out: RC50 (EC50)): > 50 µM
Max Response ([3]; Arrestin, Antagonist format, F2RL3): 2.3%
IC50 ([3]; Arrestin, Antagonist format, F2RL3, read-out: RC50 (IC50)): > 50 µM
activity against PAR4 in β-arrestin-2 recruitment assay ([3]; DiscoverX profiling service): No AZ2429 activity was detected
Ca^2+ mobilisation in parental 1321N1 cells [4]: No Ca^2+ mobilisation could be detected
Ca2+ response (Fig 2c), individual replicate values ([4]; [compound],M -4.30103): -0.222 and -3.029 and 1.6687 and -8.186
Ca2+ response (Fig 2c), individual replicate values ([4]; [compound],M -4.77815): -2.571 and -2.17 and -0.3366 and -1.253
Ca2+ response (Fig 2c), individual replicate values ([4]; [compound],M -5.25527): 2.7 and 1.783 and -0.795 and 0.5801
Ca2+ response (Fig 2c), individual replicate values ([4]; [compound],M -5.73239): 1.6114 and 0.4655 and 2.528 and 1.21
Ca2+ response (Fig 2c), individual replicate values ([4]; [compound],M -6.20952): -1.884 and -0.222 and -1.998 and 1.6114
Ca2+ response (Fig 2c), individual replicate values ([4]; [compound],M -6.68664): 5.507 and 2.986 and 0.6947 and 2.299
Ca2+ response (Fig 2c), individual replicate values ([4]; [compound],M -7.16376): 5.851 and 0.8093 and -0.4512 and 3.674
Ca2+ response (Fig 2c), individual replicate values ([4]; [compound],M -7.64088): -0.2793 and 2.6427 and 2.471 and 0.06446
Ca2+ response (Fig 2c), individual replicate values ([4]; [compound],M -8.118): -2.571 and 1.726 and 3.502 and 0.5801
Ca2+ response (Fig 2c), individual replicate values ([4]; [compound],M -8.59512): -3.717 and -6.009 and -11.1079 and -4.175

C[C@@H](C1CCCCC1)n1c(-c2cc3c(cc2Br)OCO3)nc2cc(C(=O)Nc3ccc(C#N)cc3)ccc21 [AZ3451]
Kd [5]: 14 nM
